# Assay results: paper PMC5522996, “Big conductance calcium‐activated potassium channel openers control spasticity without sedation” (British Journal of Pharmacology, 2017)
# Tests used:
# [1] = Stability in pooled mouse plasma; type: in vitro ADME; conditions: 37°C, upper limit 100 min, read-out: t ½ in plasma
# Procedure: The stability of compounds when subjected to hepatic and plasma degradation was assessed in vitro by Inpharmatica, Cambridge, UK. Compounds (1 μM) were incubated with either pooled mouse liver microsomes (0.1 mg protein mL^−1) or pooled mouse plasma at 37°C for 0, 5, 10, 20 and 40 min before termination with acetonitrile containing warfarin as an analytical internal standard. Samples were centrifuged, and the resultant supernatant analysed for parent compound. The mass responses at baseline were taken as the 100% reference values against which the disappearance of the compound was measured. The natural log of the % remaining values was used to generate linear plots of disappearance of the compounds. Half‐life values were calculated from the slope of these plots. Hepatocyte metabolism was assessed by Cyprotex, Macclesfield, and 10 μM VSN16R was incubated with primary mouse, rat, monkey (Macaque) and human hepatocytes for 1 h, and the presence of metabolites was assessed using liquid […] mass spectroscopy. The stability of VSN16R was assessed in vivo by Inpharmatica, Cyprotex and Charles Rivers, Cambridge. Blood (plasma) samples were obtained prior to and 5 min to 24 h after drug administration of 2–5 mg·kg^−1 i.v. or 5 mg·kg^−1 p.o. VSN16R into outbred mice and rats (n = 3 per time point). […] Data are expressed as mean ± SEM. […]
# [2] = Plasma levels in toxicological studies, dogs; type: in vivo; conditions: both sexes, Beagle, dog, po, 30 min following 50 mg·kg^−1 p.o., read-out: VSN16R detected in plasma
# Procedure: Twenty‐eight day toxicology in rats and dogs for Investigational New Drug filing was performed by Charles Rivers (UK). Reproductive toxicology in rabbits was performed by Charles Rivers (Canada). Pharmacokinetic and/or toxicological doses ranged from 5 to 1000 mg·kg^−1 p.o. in Sprague Dawley male and female rats (n = 6‐26 per group), 50–200 mg·kg^−1 p.o. in male and female Beagle dogs (n = 6 per group) and 100–750 mg·kg^−1 p.o. in female New Zealand white rabbits (n = 9 per group). Results are expressed as mean ± SD.
# The stability of compounds when subjected to hepatic and plasma degradation was assessed in vitro by Inpharmatica, Cambridge, UK. […] Samples were centrifuged, and the resultant supernatant analysed for parent compound. The mass responses at baseline were taken as the 100% reference values against which the disappearance of the compound was measured. […] Half‐life values were calculated from the slope of these plots. Hepatocyte metabolism was assessed by Cyprotex, Macclesfield, and 10 μM VSN16R was incubated with primary mouse, rat, monkey (Macaque) and human hepatocytes for 1 h, and the presence of metabolites was assessed using liquid […] mass spectroscopy. The stability of VSN16R was assessed in vivo by Inpharmatica, Cyprotex and Charles Rivers, Cambridge. […] Data are expressed as mean ± SEM. […]
# GPR23 = biological target: T1, GPR23 (Homo sapiens, UniProt Q99677); experiment: Receptor binding profile of VSN16R; conditions: 10µM VSN16R
# T1 construct: purchased Cerep; Chantest; DiscoveRx; Multispan; MDS Pharma Services
# T1 sequence (Q99677 whole entry): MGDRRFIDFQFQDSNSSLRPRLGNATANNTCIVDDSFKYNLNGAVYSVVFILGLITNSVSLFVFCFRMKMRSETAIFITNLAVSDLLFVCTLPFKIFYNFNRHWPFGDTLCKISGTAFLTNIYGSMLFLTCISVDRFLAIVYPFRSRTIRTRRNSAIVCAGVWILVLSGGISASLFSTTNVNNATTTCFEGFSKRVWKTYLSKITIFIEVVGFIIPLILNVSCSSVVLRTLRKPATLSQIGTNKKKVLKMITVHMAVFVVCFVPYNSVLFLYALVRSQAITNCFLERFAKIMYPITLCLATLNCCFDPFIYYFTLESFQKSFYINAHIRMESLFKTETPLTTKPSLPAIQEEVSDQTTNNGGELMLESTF
# EDG8 = biological target: T2, EDG8 (Homo sapiens, UniProt Q9H228); experiment: Receptor binding profile of VSN16R; conditions: 10µM VSN16R
# T2 construct: purchased Cerep; Chantest; DiscoveRx; Multispan; MDS Pharma Services
# T2 sequence (Q9H228 whole entry): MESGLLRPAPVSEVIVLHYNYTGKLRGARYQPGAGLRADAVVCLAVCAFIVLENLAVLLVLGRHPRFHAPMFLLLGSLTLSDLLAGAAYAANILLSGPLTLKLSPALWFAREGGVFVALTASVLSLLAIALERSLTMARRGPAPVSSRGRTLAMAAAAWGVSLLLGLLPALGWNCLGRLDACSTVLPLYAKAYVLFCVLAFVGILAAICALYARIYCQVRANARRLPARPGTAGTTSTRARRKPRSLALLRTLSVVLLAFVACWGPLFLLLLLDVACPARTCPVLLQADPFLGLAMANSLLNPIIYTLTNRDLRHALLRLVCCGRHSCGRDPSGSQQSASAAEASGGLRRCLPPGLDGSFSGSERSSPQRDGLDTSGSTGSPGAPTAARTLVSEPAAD
# GABAB = experiment: Receptor binding profile of VSN16R; set-up: species or system human; conditions: 10µM VSN16R
# CYP450 2A6 = CYP450 2A6 (Homo sapiens, UniProt P11509); experiment: CYP450 inhibition of substrate binding
# Sequence of CYP450 2A6 (P11509 whole entry): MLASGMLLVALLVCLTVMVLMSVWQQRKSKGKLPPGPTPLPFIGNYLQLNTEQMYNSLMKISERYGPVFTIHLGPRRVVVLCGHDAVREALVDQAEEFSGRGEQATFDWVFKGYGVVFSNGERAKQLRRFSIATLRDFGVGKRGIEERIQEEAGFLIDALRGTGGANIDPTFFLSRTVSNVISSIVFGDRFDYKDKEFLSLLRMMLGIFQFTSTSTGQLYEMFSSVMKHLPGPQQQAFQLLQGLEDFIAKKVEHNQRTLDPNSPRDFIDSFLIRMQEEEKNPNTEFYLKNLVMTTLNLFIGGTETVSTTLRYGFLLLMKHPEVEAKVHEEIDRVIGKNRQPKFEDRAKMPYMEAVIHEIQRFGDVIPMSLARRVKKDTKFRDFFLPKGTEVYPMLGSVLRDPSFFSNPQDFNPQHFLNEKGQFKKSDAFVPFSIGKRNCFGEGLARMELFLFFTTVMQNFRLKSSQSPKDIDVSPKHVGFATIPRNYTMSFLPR
# Source text: IC50 Inhibition of substrate binding
# Inhibition of binding of either 3-cyano-7-ethoxycoumarin, dibenzylfluorescein or 7-benzyoxy-4-
# (trifluoromethyl) coumarin in human enzyme transfected BTI NN-5B1-4 cells or Sf9 insect cells or
# inhibition of dextromethorphan substrate to CYP450 2D6 in liver microsomes.
structure (smiles),measurement,setting,value
C[C@H](CO)NC(=O)c1cccc(/C=C\CCCC(=O)N(C)C)c1 [VSN16R],half-life at 1 μM,[1],> 1.67 h
same,concentration at 30 min,[2],82 µM
same,Activity,GPR23,Negligible Activity
same,Activity,EDG8,Negligible Activity
same,Activity,GABAB,Negligible Activity
same,IC50,CYP450 2A6,> 10 µM
